Source: ChEMBL document CHEMBL5550187, “The Development of a Highly Potent and Selective Human Toll-like Receptor 2 Agonist: Synthesis and Biological Evaluation of CaLGL-1 and Its Derivatives” (J Med Chem, 2024)
The source made the active and inactive calls. No cut-off for these calls is given here.

Legend:
Assay type in all cases: cell-based
[1] = molecular target: Toll-like receptor 2 (Mus musculus) (UniProt Q9QUN7); assay: Agonist activity at TLR2 in CSF-2/GM-CSF treated wild type C57BL/6 mouse BMDC cells assessed as increase in TNF-alpha mRNA expression at 10 uM measured after 24 hrs by qRT-PCR analysis
[2] = molecular target: Toll-like receptor 2 (Mus musculus) (UniProt Q9QUN7); assay: Agonist activity at TLR2 in CSF-2/GM-CSF treated wild type C57BL/6 mouse BMDC cells assessed as increase in TNF-alpha level at 10 uM measured after 24 hrs by ELISA
[3] = molecular target: T1, Toll-like receptor 2 (Homo sapiens, UniProt O60603); assay: Agonist activity at human TLR2 transfected in HEK293T cells cotransfected with NF-kappaB promoter assessed as increase in NF-kappaB activation measured after 24 hrs by Dual-Glo luciferase assay; conditions: filed as agonist
[4] = molecular target: TLR2/TLR6 (Homo sapiens) (UniProt O60603+Q9Y2C9); assay: Agonist activity at human TLR2/TLR6 heterodimer transfected in HEK293T cells cotransfected with NF-kappaB promoter assessed as increase in NF-kappaB activation at 1 to 50 uM measured after 24 hrs by Dual-Glo luciferase assay; conditions: dose 1-50 µM
[5] = molecular target: T1, Toll-like receptor 2; assay: Agonist activity at TLR2 in PMA-differentiated human THP-1 cells assessed as increase in TNF-alpha level by ELISA
[6] = molecular target: Toll-like receptor 1/2 (Homo sapiens) (UniProt O60603+Q15399); assay: Agonist activity at human TLR1/TLR2 heterodimer transfected in HEK293T cells cotransfected with NF-kappaB promoter assessed as fold increase in NF-kappaB activation at 1 to 50 uM measured after 24 hrs by Dual-Glo luciferase assay relative to TLR2 alone; conditions: filed as agonist, dose 1-50 µM
[7] = molecular target: Toll-like receptor 2 (Mus musculus, UniProt Q9QUN7); assay: Agonist activity at TLR2 in RmGM-CSF-induced wild type Black6 mouse BMDC cells lacking TLR4 assessed as increase in TNFalpha response incubated overnight by ELISA
[8] = molecular target: T1, Toll-like receptor 2; assay: Agonist activity at TLR2 in PMA-differentiated human THP-1 cells assessed as increase in IL-1beta mRNA expression by qRT-PCR analysis
[9] = molecular target: T1, Toll-like receptor 2; assay: Agonist activity at TLR2 in PMA-differentiated human THP-1 cells assessed as increase in TNF-alpha mRNA expression by qRT-PCR analysis
[10] = molecular target: T1, Toll-like receptor 2; assay: Agonist activity at TLR2 in PMA-differentiated human THP-1 cells assessed as increase in IL-6 mRNA expression by qRT-PCR analysis

Sequence of Toll-like receptor 2 (Mus musculus) (Q9QUN7 whole entry): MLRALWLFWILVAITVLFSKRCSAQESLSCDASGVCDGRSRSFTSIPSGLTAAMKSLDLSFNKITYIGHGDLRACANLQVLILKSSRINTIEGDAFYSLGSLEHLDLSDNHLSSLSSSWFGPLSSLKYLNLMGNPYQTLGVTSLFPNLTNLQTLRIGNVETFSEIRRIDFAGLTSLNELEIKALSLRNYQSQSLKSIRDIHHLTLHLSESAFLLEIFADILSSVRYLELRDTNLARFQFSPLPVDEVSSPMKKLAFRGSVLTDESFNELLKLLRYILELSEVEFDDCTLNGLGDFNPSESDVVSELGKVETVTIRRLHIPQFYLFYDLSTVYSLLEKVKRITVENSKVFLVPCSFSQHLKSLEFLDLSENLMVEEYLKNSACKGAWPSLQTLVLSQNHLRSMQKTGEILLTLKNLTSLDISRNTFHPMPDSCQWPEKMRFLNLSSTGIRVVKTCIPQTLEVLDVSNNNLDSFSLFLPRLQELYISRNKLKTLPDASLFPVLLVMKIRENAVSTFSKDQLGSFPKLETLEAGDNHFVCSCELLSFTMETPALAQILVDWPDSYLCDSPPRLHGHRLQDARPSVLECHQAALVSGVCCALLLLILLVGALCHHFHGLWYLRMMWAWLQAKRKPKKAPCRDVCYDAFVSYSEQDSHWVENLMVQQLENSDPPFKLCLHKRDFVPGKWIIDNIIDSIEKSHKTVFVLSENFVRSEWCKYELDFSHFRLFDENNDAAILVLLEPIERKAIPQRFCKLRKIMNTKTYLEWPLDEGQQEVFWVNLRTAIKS
T1 sequence (O60603 whole entry): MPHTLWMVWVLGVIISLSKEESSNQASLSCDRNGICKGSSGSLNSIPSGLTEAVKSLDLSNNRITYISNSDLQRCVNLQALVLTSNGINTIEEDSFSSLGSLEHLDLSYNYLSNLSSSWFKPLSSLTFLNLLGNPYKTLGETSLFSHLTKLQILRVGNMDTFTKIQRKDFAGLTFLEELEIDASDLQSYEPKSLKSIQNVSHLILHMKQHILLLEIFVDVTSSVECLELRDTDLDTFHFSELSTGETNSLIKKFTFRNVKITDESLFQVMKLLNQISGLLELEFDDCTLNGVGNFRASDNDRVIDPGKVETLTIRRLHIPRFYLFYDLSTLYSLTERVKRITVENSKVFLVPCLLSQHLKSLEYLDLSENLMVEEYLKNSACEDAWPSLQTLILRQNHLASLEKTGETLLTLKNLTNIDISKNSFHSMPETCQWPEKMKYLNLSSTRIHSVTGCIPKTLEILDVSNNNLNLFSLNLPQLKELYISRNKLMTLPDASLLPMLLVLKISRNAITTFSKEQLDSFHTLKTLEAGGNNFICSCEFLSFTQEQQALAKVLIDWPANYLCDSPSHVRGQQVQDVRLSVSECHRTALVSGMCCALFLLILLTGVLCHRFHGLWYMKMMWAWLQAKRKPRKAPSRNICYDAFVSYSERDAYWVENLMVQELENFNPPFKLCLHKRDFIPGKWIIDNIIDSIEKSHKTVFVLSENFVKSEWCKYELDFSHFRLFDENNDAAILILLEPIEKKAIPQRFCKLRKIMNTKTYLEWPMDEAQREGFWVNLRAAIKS
Sequence of Toll-like receptor 2 (Mus musculus, UniProt Q9QUN7) (Q9QUN7 whole entry): as the sequence (Q9QUN7 whole entry) above

Activity ([1]; filed as agonist) | Activity ([2]; filed as agonist) | Activity [1] | Activity [2] | Structure (SMILES) | further results
Active | Active |  |  | CCCCCCCCCCCC(=O)OC[C@@H](O)CO[C@@H]1O[C@@H]([C@H]2CO[C@@H](CCCCCCCCC)O2)[C@H](O)[C@H]1O | 
 |  | inactive | inactive | CCCCCCCCCCCCCCCCCCC[C@H]1OC[C@H]([C@@H]2O[C@@H](OC[C@H](O)COC(=O)CCCCCCCCCCC)[C@H](O)[C@H]2O)O1 | 
 |  |  |  | CCCCCCCCCCCC[C@@H]1OC[C@H]([C@@H]2O[C@@H](OC[C@H](O)COC(=O)CCCCCCCCCCC)[C@H](O)[C@H]2O)O1 | Activity [3]: Active; Activity [4]: inactive; EC50 [5]: 0.116 nM; fold change (FC) [6]: 15
 |  | inactive | inactive | CCCCCCCCCCCCCCCCC[C@H]1OC[C@H]([C@@H]2O[C@@H](OC[C@H](O)COC(=O)CCCCCCCCCCC)[C@H](O)[C@H]2O)O1 | 
 |  | inactive | inactive | CCCCCCCCCCCCCCCCC[C@@H]1OC[C@H]([C@@H]2O[C@@H](OC[C@H](O)COC(=O)CCCCCCCCCCC)[C@H](O)[C@H]2O)O1 | 
 |  |  |  | CCCCCCCCCCCCC[C@@H]1OC[C@H]([C@@H]2O[C@@H](OC[C@H](O)COC(=O)CCCCCCCCCCC)[C@H](O)[C@H]2O)O1 | EC50 [7]: 3200 nM; Activity [8]: inactive; Activity [9]: inactive; Activity [10]: inactive
Active | Active |  |  | CCCCCCCCCCCC(=O)OC[C@@H](O)CO[C@@H]1O[C@@H]([C@H]2CO[C@H](CCCCCCCCC)O2)[C@H](O)[C@H]1O | 
Active | Active |  |  | CCCCCCCCCCCC(=O)OC[C@@H](O)CO[C@@H]1O[C@@H]([C@H]2CO[C@@H](CCCCCCCCCCC)O2)[C@H](O)[C@H]1O | Activity ([8]; filed as agonist): Active; Activity ([9]; filed as agonist): Active; Activity ([10]; filed as agonist): Active
 |  | inactive | inactive | CCCCCCCCCCCCCCCCCCC[C@@H]1OC[C@H]([C@@H]2O[C@@H](OC[C@H](O)COC(=O)CCCCCCCCCCC)[C@H](O)[C@H]2O)O1 | 
Active | Active |  |  | CCCCCCCCCCCC(=O)OC[C@@H](O)CO[C@@H]1O[C@@H]([C@H]2CO[C@H](CCCCCCCCCCC)O2)[C@H](O)[C@H]1O | 
